Measurements taken from article PMC12107143, “MALT1 inhibitor MI-2 induces ferroptosis by direct targeting of GPX4” (Proceedings of the National Academy of Sciences of the …, 2025).

Target: T1, MALT1 (Homo sapiens, UniProt Q9UDY8)
T1 construct: GST-MALT1 (aa 325–760)
T1 sequence (Q9UDY8 325-760): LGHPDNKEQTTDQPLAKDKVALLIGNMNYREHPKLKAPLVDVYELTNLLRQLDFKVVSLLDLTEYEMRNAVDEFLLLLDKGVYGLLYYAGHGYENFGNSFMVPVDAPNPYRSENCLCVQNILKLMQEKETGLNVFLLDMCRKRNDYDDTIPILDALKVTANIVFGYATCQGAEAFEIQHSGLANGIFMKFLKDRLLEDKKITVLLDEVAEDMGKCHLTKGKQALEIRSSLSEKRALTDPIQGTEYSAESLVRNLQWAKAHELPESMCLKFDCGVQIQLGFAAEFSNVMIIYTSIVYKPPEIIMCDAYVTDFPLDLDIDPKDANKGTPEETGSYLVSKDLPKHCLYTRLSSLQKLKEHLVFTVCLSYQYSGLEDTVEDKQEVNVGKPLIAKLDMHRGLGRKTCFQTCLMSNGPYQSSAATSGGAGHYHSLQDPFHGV
Assay: recombinant GST-MALT1 protease assay with fluorescence substrate Ac-LRSR-AMC
Assay type: biochemical

IC50: 2100 nM
SMILES: COCCOc1nc(-c2ccc(Cl)c(Cl)c2)n(-c2ccc(NC(=O)CCl)cc2)n1 [MI-2]
